From paper PMC11359702, “Synthesis and Biochemical Evaluation of Ethanoanthracenes and Related Compounds: Antiproliferative and Pro-Apoptotic Effects in Chronic Lymphocytic Leukemia (CLL)” (Pharmaceuticals, 2024)
Read-outs that look alike come from different tables or passages of the source.

What was measured:
leukemia cell panel = test: NCI-60 five-dose assay, leukemia cell panel mean; format: cell-based, human; settings: mean across the six leukemia cell lines
K-562 = test: NCI-60 five-dose assay; format: cell-based, human
A498 = test: NCI-60 five-dose assay; format: cell-based, human
Experimental: (§1) A number of our most promising compounds identified through preliminary cell viability testing (23c, 23d, 23f, 23h, 23l, 23m, 23n, 23o, 24f, 24l, 25n and 26n) were selected for NCI drug screening in the 60-cell-line panel. The panel includes nine subcategories based on cancer tissue types, which include leukemia, ovarian, central nervous system, breast, lung, prostate, skin, renal and colon cancer. The compounds were initially assessed in a one-dose assay at a fixed treatment concentration of 10 µM. The compounds selected for further investigation were progressed to a five-dose assay across the concentration ranges of 0.01, 0.1, 1, 10 and 100 µM [72]. The endpoints assessed in the screening protocol were GI50, TGI and LC50 [72].

HCT-2998 = test: NCI-60 five-dose assay; format: cell-based, human
Experimental: as §1

RXF 393 = test: NCI-60 five-dose assay; format: cell-based, human
Experimental: as §1

NCI/ADR-RES = test: NCI-60 five-dose assay; format: cell-based, human
Experimental: as §1

HOP-92 = test: NCI-60 five-dose assay; format: cell-based, human
Experimental: as §1

NCI-H552 = test: NCI-60 five-dose assay; format: cell-based, human
Experimental: as §1

SK-MEL-5 = test: NCI-60 five-dose assay; format: cell-based, human
Experimental: as §1

UACC-62 = test: NCI-60 five-dose assay; format: cell-based, human
Experimental: as §1

SK-MEL-28 = test: NCI-60 five-dose assay; format: cell-based, human
Experimental: as §1

HOP-62 = test: NCI-60 five-dose assay; format: cell-based, human
Experimental: as §1

PGA-1 cells [1] = test: LDH cytotoxicity assay (CytoTox 96); format: cell-based; settings: 24 h
Source text: (§2) The lactate dehydrogenase (LDH) assay is used to assess the membrane integrity of cells as a function of the cytoplasmic LDH released. The loss of cell membrane integrity (due to cytotoxic insult) is detectable through LDH release into the cell growth medium. The assay is initiated via the reduction in cellular co-factor NAD^+ to NADH catalyzed via the LDH enzyme. Newly formed NADH catalyzes the acidic reduction in iodonitrotetrazolium chloride (INT) to the highly colored formazan (red) (mediated via the diaphorase enzyme). […] At the 10-µM treatment concentration, mild to moderate cytotoxicity (19–47%) was observed. […] Cytotoxicity remained low to mild at 1 µM (4–18%) with 23a displaying the lowest LDH release (4%).
(§3) Following the treatment of the HG-3 and PGA-1 cells at 10 µM for 24 hr, the amount of LDH released was determined using an LDH assay kit from Promega (G1780). Cell lysis solution = 100% cell lysis and LDH release). Data are presented as % cell death at a concentration of 10 µM. Cells were treated with ethanoanthracene compounds 20a, 20f, 23a and 25n (1 µM and 10 µM) for 24 h. Values are shown as the mean of three independent experiments.
(§4) The cytotoxicity of the selected compounds 20a, 20f, 23a and 25n was determined using the CytoTox 96 non-radioactive cytotoxicity assay (Promega Corporation; 2800 Woods Hollow Road, Madison, WI, USA). CLL cells HG-3 and PGA-1 were incubated for 24 h and then treated with the selected compounds 20a, 20f, 23a and 25n at 10-µM and 1-µM concentrations, following the protocol outlined above in the cell viability assay. After 24 h, the lysis solution (10×) (20 µL) was added, and the cells were incubated for a further 1 h to ensure complete cell death. Supernatant (50 µL) was removed from each well and transferred to a clean 96-well plate. “Substrate mix” (50 µL) was added, and the plate was stored in the dark at 20 °C for 30 min. “Stop solution” (50 µL) was added to each well, and the absorbance at 490 nm was recorded using a Dynatech MR5000 plate reader; the % cell death was determined relative to the control cell lysis solution.

HG-3 cells = test: LDH cytotoxicity assay (CytoTox 96); format: cell-based; settings: HG-3, 10 µM, 24 h, lysis solution = 100%
Source text: as §2, §3, §4

PGA-1 cells [2] = test: alamarBlue cell viability assay; settings: for IC50: read-out: PGA-1 IC50
[3] = system: healthy-donor peripheral blood mononuclear cells (PBMCs); test: Annexin V/PI assay in donor PBMCs; format: cell-based; settings: 48 h
Source text: Whole blood samples from healthy donors (×5) were isolated, prepared and treated following the protocol previously described. The percentage of apoptosis observed in the treatment of isolated donor PBMCs with nitrovinylethanoanthracene 20a is concentration-dependent (Figure 11A). […] For ethanoanthracene 23a, the percentage of total apoptosis observed is illustrated in Figure 11B. […] The percentage of total apoptosis observed in the treatment of isolated donor PBMCs with the anthracene–chalcone 25n (normalized against vehicle 0.5% v/v DMSO) is illustrated in Figure 11C, and the dose-response behavior was also concentration-dependent, with compound 25n moderately toxic to healthy-donor PBMCs when treated at a 5.00 µM concentration (39%).
The human peripheral blood mononuclear cells (PBMCs) were generated as follows: peripheral blood was obtained from healthy donors (n = 2) after informed consent was received. The blood was then placed into a 50-mL falcon tube and diluted with an equal volume of phosphate-buffered saline (PBS). PBMCs were isolated using density-gradient centrifugation with LymphoPrep, as described previously. The cells were resuspended in RPMI media containing 10% FBS and 1% penicillin/streptomycin (P/S). The cells were counted using a haemocytometer and seeded into 96 well plates at a density of 1 × 10^5 cells/well (200 µL), and they were incubated at 37 °C for 1 h prior to compound treatment. The Annexin V/PI assay was used as a preliminary method of assessing the selective toxicity of the above compounds when compared with a previous alamarBlue cell viability assay in CLL cell lines. The assay was carried out as described above for the Annexin V/PI assay previously described above, and it was completed in triplicate on two independent days. Approval for this study was obtained from the School of Pharmacy and Pharmaceutical Sciences Trinity College Dublin Research Ethics Committee (2020-06-01-MS).

SR = test: NCI-60 five-dose assay; format: cell-based, human
CCRF-CEM = test: NCI-60 five-dose assay; format: cell-based, human
SNB-75 = test: NCI-60 five-dose assay; format: cell-based, human
Experimental: as §1

[4] = Homo sapiens, 24 h, read-out: cell viability

## O=C(C=CC12c3ccccc3C(c3ccccc31)C1C(=O)N(c3ccc(Cl)cc3)C(=O)C12)c1ccccn1 (centres unmarked) [Compound 25n, (E)-13-(4-Chlorophenyl)-9-(3-oxo-3-(pyridin-2-yl)prop-1-en-1-yl)-9,10-dihydro-9,10-[3,4]epipyrroloanthracene-12,14-dione]
Leukemia cell panel; Homo sapiens
  GI50: 0.29 µM
K-562; Homo sapiens, K562, K-562
  GI50: 0.29 µM
K-562; K-562
  GI50: 0.293 µM
A498; Homo sapiens
  GI50: 0.539 µM
HCT-2998; Homo sapiens
  GI50: 0.335 µM
RXF 393; Homo sapiens
  GI50: 0.222 µM
NCI/ADR-RES; Homo sapiens
  GI50: 0.356 µM
HOP-92; Homo sapiens
  GI50: 1.19 µM
NCI-H552; Homo sapiens
  GI50: 0.331 µM
SK-MEL-5; Homo sapiens
  GI50: 1.08 µM
UACC-62; Homo sapiens
  GI50: 0.4 µM
SK-MEL-28; Homo sapiens
  GI50: 0.455 µM
HOP-62; Homo sapiens
  GI50: 0.587 µM
PGA-1 cells [1]; PGA-1, 10 µM
  LDH release (cytotoxicity, % cell death): 15%
HG-3 cells
  LDH release (cytotoxicity, % cell death): 47%
PGA-1 cells [2]; Homo sapiens, 24 h
  IC50: 0.87 µM
PGA-1 cells [2]; [4]
  viability at 1 µM: 25%
  viability at 10 µM: 7%
[3]; 5 µM
  total apoptosis (toxicity) in healthy-donor PBMCs: 39%
SR
  GI50: 0.284 µM
SR; Homo sapiens
  GI50: 0.28 µM
CCRF-CEM
  GI50: 0.321 µM
CCRF-CEM; Homo sapiens
  GI50: 0.32 µM

## O=C(/C=C/C12c3ccccc3C(c3ccccc31)C1C(=O)NC(=O)C12)c1ccc(Cl)cc1 (racemic) [Compound 23l, (E)-9-(3-(4-Chlorophenyl)-3-oxoprop-1-en-1-yl)-9,10-dihydro-9,10-[3,4]epipyrroloanthracene-12,14-dione]
Leukemia cell panel
  GI50: 1.77 µM
K-562; K-562
  GI50: 1.99 µM
SNB-75
  GI50: 1.1 µM
A498
  GI50: 1.28 µM
HCT-2998
  GI50: 1.69 µM
RXF 393
  GI50: 1.2 µM
NCI/ADR-RES
  GI50: 1.77 µM
HOP-92
  GI50: 1.32 µM
NCI-H552
  GI50: 1.46 µM
SK-MEL-5
  GI50: 1.7 µM
UACC-62
  GI50: 1.4 µM
SK-MEL-28
  GI50: 1.8 µM
HOP-62
  GI50: 1.69 µM
PGA-1 cells [2]; PGA-1, 24 h
  IC50: 3.21 µM
SR
  GI50: 2.15 µM
CCRF-CEM
  GI50: 1.66 µM

## O=C(/C=C/C12c3ccccc3C(c3ccccc31)C1C(=O)NC(=O)C12)c1ccc(F)cc1 (racemic) [Compound 23h]
Leukemia cell panel; Homo sapiens
  GI50: 1 µM
K-562; Homo sapiens, K562, K-562
  GI50: 1.42 µM
K-562; K-562
  GI50: 1.55 µM
SNB-75; Homo sapiens
  GI50: 1.37 µM
A498; Homo sapiens
  GI50: 1.16 µM
HCT-2998; Homo sapiens
  GI50: 1.7 µM
RXF 393; Homo sapiens
  GI50: 1.27 µM
NCI/ADR-RES; Homo sapiens
  GI50: 2.16 µM
HOP-92; Homo sapiens
  GI50: 1.33 µM
NCI-H552; Homo sapiens
  GI50: 1.74 µM
SK-MEL-5; Homo sapiens
  GI50: 1.95 µM
UACC-62; Homo sapiens
  GI50: 1.66 µM
SK-MEL-28; Homo sapiens
  GI50: 1.98 µM
HOP-62; Homo sapiens
  GI50: 2.45 µM
PGA-1 cells [2]; Homo sapiens, 24 h
  IC50: 2.88 µM
PGA-1 cells [2]; [4]
  viability at 10 µM: 9%

## O=C(C=CC12c3ccccc3C(c3ccccc31)C1C(=O)NC(=O)C12)c1ccc(Br)cc1 (centres unmarked) [Compound 23a, 9-(E)-3-(4-Bromophenyl)-3-oxoprop-1-en-1-yl)-9,10-dihydro-9,10-[3,4]epipyrroloanthracene-12,14-dione]
PGA-1 cells [1]; PGA-1, 1 µM
  LDH release (cytotoxicity, % cell death): 4%
PGA-1 cells [1]; PGA-1, 10 µM
  LDH release (cytotoxicity, % cell death): 23%
HG-3 cells
  LDH release (cytotoxicity, % cell death): 25%
PGA-1 cells [2]; Homo sapiens, 24 h
  IC50: 1.97 µM
PGA-1 cells [2]; [4]
  viability at 10 µM: 3%
[3]; 5 µM
  total apoptosis (toxicity) in healthy-donor PBMCs: 28%
[3]; 1.25–2.5 µM
  total apoptosis (toxicity) in healthy-donor PBMCs: 5–14%
